Converted amounts (≈) assume the structure as drawn.

Data set [1] in a line: Selectivity index, ratio of CC50 for african green monkey Vero C1008 cells to MIC for Mycobacterium tuberculosis H37Rv. Type of data set: toxicity, cell-based. To be noted: read-out: Selectivity Index.
The test system of data set [2] is Mycobacterium tuberculosis. Briefly: Antitubercular activity against Mycobacterium tuberculosis H37Rv assessed as growth inhibition after 7 days by resazurin microplate assay. Format: functional. Particulars: 168 h.
The nature of data set [3]: Cytotoxicity against Chlorocebus aethiops (African green monkey) Vero C1008 cells assessed as cell viability after 72 hr by MTT assay. Type of data set: cell-based. Particulars: chlorocebus sabaeus.

With `CC1CC(C)(C)CC(O)(c2nnc(-c3ccncc3)[nH]2)C1` (stereo unspecified), the selectivity ratio in data set [1] amounted to 637. Also, in data set [2], the MIC is 0.65 µg/mL (≈ 2.27 µM). Further, in data set [3], the CC50 at 72 h was 414 µg/mL (≈ 1450 µM).

In the case of `Cc1nnc(C2(O)CCCCC2)[nH]1`, the selectivity ratio in data set [1] is 63. Moreover, the MIC in data set [2] was found to be 6.25 µg/mL (≈ 34.5 µM). Further, in data set [3], the CC50 at 72 h was determined as 392 µg/mL (≈ 2160 µM).

Regarding `Oc1ccc(-c2nnc(C3(O)CCCC3)[nH]2)cc1`, the selectivity ratio in data set [1] was 108. Besides, the MIC in data set [2] is 3.2 µg/mL (≈ 13 µM). Besides, the 50% cytotoxic concentration (CC50) at 72 h in data set [3] is 347 µg/mL (≈ 1410 µM).

With `OC(c1nnc(-c2ccccc2)[nH]1)C1CC=CCC1` (stereo unspecified), in data set [1], the selectivity ratio was determined as 29. In addition, the MIC in data set [2] was found to be 12.5 µg/mL (≈ 49 µM). Also, the CC50 at 72 h in data set [3] was found to be 358 µg/mL (≈ 1400 µM).

On to `Cc1csc(-c2nnc(C3(O)C4CC5CC(C4)CC3C5)[nH]2)c1` (stereo unspecified), for which the selectivity ratio in data set [1] was 84. In data set [2], the MIC worked out at 4.25 µg/mL (≈ 13.5 µM). The CC50 at 72 h in data set [3] is 356 µg/mL (≈ 1130 µM).

Take `Oc1ccc(-c2nnc(C3(O)CCCCC3)[nH]2)cc1`: the selectivity ratio in data set [1] was found to be 45. In data set [2], the MIC came out at 7.5 µg/mL (≈ 28.9 µM). The CC50 at 72 h in data set [3] was found to be 340 µg/mL (≈ 1310 µM).

For the compound `Cc1csc(-c2nnc(C3(O)CCCCC3)[nH]2)c1`, the selectivity ratio in data set [1] came out at 226. For the same compound, the MIC in data set [2] was 1.65 µg/mL (≈ 6.27 µM). The CC50 at 72 h in data set [3] amounted to 373 µg/mL (≈ 1420 µM).

As for `OC1CCC(C(O)c2nnc(-c3ccncc3)[nH]2)CC1O` (stereo unspecified), the selectivity ratio in data set [1] was determined as 477. Moreover, the MIC in data set [2] stood at 0.9 µg/mL (≈ 3.1 µM). In data set [3], the CC50 at 72 h was 429 µg/mL (≈ 1480 µM).

As for `OC1(c2nnc(-c3ccncc3)[nH]2)CCCC1`, the selectivity ratio in data set [1] is 490. Also, the MIC in data set [2] was 0.78 µg/mL (≈ 3.39 µM). For the same compound, the CC50 at 72 h in data set [3] turned out to be 382 µg/mL (≈ 1660 µM).

With `OC1CCC(C(O)c2nnc(-c3ccccc3)[nH]2)CC1O` (stereo unspecified), the selectivity ratio in data set [1] was determined as 55. Further, the MIC in data set [2] was 7.75 µg/mL (≈ 26.8 µM). Also, in data set [3], the CC50 at 72 h amounted to 429 µg/mL (≈ 1480 µM).

As to `NNC(=O)c1ccncc1` [ISONIAZID], in data set [1], the selectivity ratio turned out to be 499. Further, the MIC in data set [2] was 0.4 µg/mL (≈ 2.92 µM).

In the case of `Cc1nnc(C(O)C2CC=CCC2)[nH]1` (stereo unspecified), the selectivity ratio in data set [1] came out at 62. Further, the MIC in data set [2] stood at 5.15 µg/mL (≈ 26.6 µM). For the same compound, in data set [3], the CC50 at 72 h was determined as 318 µg/mL (≈ 1650 µM).

Consider `OC1(c2nnc(-c3ccccc3)[nH]2)CCCCC1`, for which the selectivity ratio in data set [1] came out at 34. The MIC in data set [2] came out at 12.4 µg/mL (≈ 50.8 µM). In addition, the CC50 at 72 h in data set [3] stood at 422 µg/mL (≈ 1730 µM).

With `Cc1nnc(C2(O)CC(C)CC(C)(C)C2)[nH]1` (stereo unspecified), the selectivity ratio in data set [1] turned out to be 84. Further, the MIC in data set [2] is 4.5 µg/mL (≈ 20.2 µM). Besides, in data set [3], the CC50 at 72 h was found to be 380 µg/mL (≈ 1700 µM).

Take `OC(c1nnc(-c2cccnc2)[nH]1)C1CC=CCC1` (stereo unspecified): the selectivity ratio in data set [1] was 44. Moreover, the MIC in data set [2] worked out at 8.5 µg/mL (≈ 33.2 µM). Further, the CC50 at 72 h in data set [3] was 371 µg/mL (≈ 1450 µM).

For `OC(c1nnc(-c2ccncc2)[nH]1)C1CC=CCC1` (stereo unspecified), in data set [1], the selectivity ratio is 310. For the same compound, in data set [2], the MIC stood at 1.25 µg/mL (≈ 4.88 µM). Further, in data set [3], the CC50 at 72 h was 388 µg/mL (≈ 1510 µM).

For `CC1CC(C)(C)CC(O)(c2nnc(-c3ccccc3)[nH]2)C1` (stereo unspecified), in data set [1], the selectivity ratio was 25. The MIC in data set [2] came out at 15.4 µg/mL (≈ 53.8 µM). Also, the CC50 at 72 h in data set [3] came out at 383 µg/mL (≈ 1340 µM).

For the compound `CC1CC(C)(C)CC(O)(c2nnc(-c3ccc(O)cc3)[nH]2)C1` (stereo unspecified), the selectivity ratio in data set [1] worked out at 33. The MIC in data set [2] is 10.5 µg/mL (≈ 34.8 µM). Moreover, the CC50 at 72 h in data set [3] was 352 µg/mL (≈ 1170 µM).

Turning to `OC1(c2nnc(-c3cccnc3)[nH]2)CCCCC1`, the selectivity ratio in data set [1] turned out to be 88. The MIC in data set [2] stood at 4.5 µg/mL (≈ 18.4 µM). The CC50 at 72 h in data set [3] is 397 µg/mL (≈ 1630 µM).

For `CC1CC(C)(C)CC(O)(c2nnc(-c3cccnc3)[nH]2)C1` (stereo unspecified), in data set [1], the selectivity ratio was found to be 29. Besides, the MIC in data set [2] stood at 12.5 µg/mL (≈ 43.6 µM). For the same compound, in data set [3], the CC50 at 72 h was 368 µg/mL (≈ 1290 µM).

In the case of `OC1(c2nnc(-c3ccncc3)[nH]2)CCCCC1`, the selectivity ratio in data set [1] was 698. The MIC in data set [2] was determined as 0.59 µg/mL (≈ 2.42 µM). Further, in data set [3], the CC50 at 72 h amounted to 412 µg/mL (≈ 1690 µM).

As to `CC1CCC(O)(c2nnc(-c3ccccc3)[nH]2)CC1` (stereo unspecified), in data set [1], the selectivity ratio turned out to be 28. In addition, the MIC in data set [2] was determined as 15.5 µg/mL (≈ 60.2 µM). Further, the CC50 at 72 h in data set [3] is 437 µg/mL (≈ 1700 µM).

Consider `CC1CCC(O)(c2nnc(-c3ccncc3)[nH]2)CC1` (stereo unspecified), for which, in data set [1], the selectivity ratio worked out at 424. For the same compound, the MIC in data set [2] worked out at 0.95 µg/mL (≈ 3.68 µM). For the same compound, in data set [3], the CC50 at 72 h was found to be 403 µg/mL (≈ 1560 µM).

For `Cc1nnc(C(O)C2CCC(O)C(O)C2)[nH]1` (stereo unspecified), in data set [1], the selectivity ratio worked out at 116. For the same compound, the MIC in data set [2] is 3.25 µg/mL (≈ 14.3 µM). Also, the CC50 at 72 h in data set [3] is 378 µg/mL (≈ 1660 µM).

The record behind these values is ChEMBL document CHEMBL3046431, “Novel 4H-1,2,4-triazol-3-yl cycloalkanols as potent antitubercular agents” (Med Chem Res, 2013).
